Assays:
human RBC = details: cited from earlier work
CHIP28 = target: T1, CHIP28 (Homo sapiens, UniProt P29972); test: Stopped-flow water flux (Pf) in CHIP28 proteoliposomes, effect of mercurial reagents; type: biochemical; details: 1 mM
T1 construct: was comprised of AQP1 (the 28-kDa protein itself and the 35-60-kDa glycosylated protein); from tissue; host or cells: human erythrocytes (blood-bank units; small-scale purifications from freshly drawn whole blood)
T1 sequence (P29972 2-269 limits assumed): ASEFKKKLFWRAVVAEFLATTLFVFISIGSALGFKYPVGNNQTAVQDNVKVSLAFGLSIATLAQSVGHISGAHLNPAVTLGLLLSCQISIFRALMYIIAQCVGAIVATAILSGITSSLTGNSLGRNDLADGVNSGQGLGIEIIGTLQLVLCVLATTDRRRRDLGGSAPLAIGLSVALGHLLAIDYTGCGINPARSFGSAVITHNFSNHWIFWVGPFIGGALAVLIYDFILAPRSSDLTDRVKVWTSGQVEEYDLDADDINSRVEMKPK
Procedure: Purified AQP1 was stored overnight at 0° C. or frozen for several days at -80° C. prior to reconstitution. Reconstitution into proteoliposomes was carried out in a final volume of 1 ml containing 60-90 μg of purified AQP 1 protein in chromatography buffer, 9 mg of bath-sonicated E. coli phospholipid, 1.25% (w/v) octyl glucoside, and 50 mM Tris-HCl (pH 7.5). The mixture was briefly blended on a vortex mixer and incubated for 20 minutes on ice. Proteoliposomes (or liposomes prepared without protein) were formed at room temperature by rapidly injecting the mixture into 25 ml of buffer A [50 mM MOPS, pH 7.5, 150 mM N-methyl-D-glucamine (NMDG) chloride also containing 10-15 mM carboxyfluorescein, 1 mM dithiothreitol, and 0.5 mM PMSF]. For the measurement of proton permeability, proteoliposomes and liposomes were loaded with buffer B (5 mM MOPS, pH 7.5, 150 mM KCl, 0.5 mM carboxyfluorescein, 1 mM dithiothreitol, and 0.5 mM PMSF). The suspension was incubated for 20 minutes at room temperature. Proteoliposomes or liposomes were collected by centrifugation for 1 hour at 123000×g in a Beckman Type 42.1 rotor at 4° C. The pellet was resuspended in 8 ml of buffer A or B and then centrifuged for 1 hour at 152000×g in a Beckman Type 50 Ti rotor. Proteoliposomes or liposomes were resuspended in 300 μl of buffer A or B and stored at 4° C. for 16-24 hours. Typically 50% (54±6%, n=5) of the AQP1 protein and 70% of the phospholipid were recovered in proteoliposomes. The lipid to protein ratio was in the range of 120:1 to 219:1. These proteoliposomes have internal volumes of 1 μl/mg of phospholipid (Ambudkar and Maloney, 1986, J. Biol. Chem. 261:10079-10086). Protein and phospholipid were measured as described by Ambudkar & Maloney (J. Biol. Chem., 1986, 261:10079-10086).
(§1) Permeability measurements. Membrane permeability measurements (Pf) were measured by exposing AQP1 proteoliposomes or control liposomes to an osmotic gradient by rapid mixing with an equal volume of another solution containing buffer A plus sufficient sucrose to increase osmolality in the mixed solutions to a value 120% of that in the original solution. This was performed with a stopped-flow fluorometer (SF.17MV, Applied Photophysics, Leatherhead, U.K.) with a measured dead time of 0.7 ms. The excitation wavelength was set at 490±1.5 nm using a 150-W mercury-xenon arc lamp and monochromator (.function.3.4 grating monochromator, both from Applied Photophysics); the emission wavelength was >515 nm using a cut-on filter (Oriel Corp., Stratford, Conn.). Extravesicular carboxyfluorescein fluorescence was completely quenched using anti-fluorescein antibody (Harris et al., 1990, Am. J. Physiol. 259:F366-F371).
Within the range of osmolalities used in these experiments, the vesicles acted as perfect osmometers, and relative volume (absolute volume divided by initial volume) was linearly related to relative fluorescence (absolute fluorescence divided by initial fluorescence). The data obtained from 8 to 16 determinations was averaged and fit to single-exponential curves using 5 software provided by Applied Photophysics (Zeidel et al., 1992, Biochemistry 31:589-596). The fitting parameters were then used to determine Pf by first applying the linear conversion from relative fluorescence to relative volume and then iteratively solving the water permeability equation using MathCAD software (MathSoft, Cambridge, Mass.):
dV(t)/dt=(Pf)(SAV)(MVW)[(Cin /V(t))-Cout ] (1)
where V(t) is relative intravesicular volume as a function of time, Pf is osmotic water permeability in centimeters per second, SAV is the vesicle surface area to volume ratio, MVW is the molar volume of water (18 cm^3 /mol), and Cin and Cout are the initial concentrations of total solute inside and outside the vesicle, respectively (Zeidel et al., 1992, Biochemistry 31:589-596).
Effect of mercural reagents.

[1] = Stopped-flow water flux (Pf) in control liposomes, effect of mercurial reagents; type: biochemical; details: 1 mM mercurial
Procedure: (§2) Purified AQP1 was stored overnight at 0° C. or frozen for several days at -80° C. prior to reconstitution. Reconstitution into proteoliposomes was carried out in a final volume of 1 ml containing 60-90 μg of purified AQP 1 protein in chromatography buffer, 9 mg of bath-sonicated E. coli phospholipid, 1.25% (w/v) octyl glucoside, and 50 mM Tris-HCl (pH 7.5). The mixture was briefly blended on a vortex mixer and incubated for 20 minutes on ice. […] Protein and phospholipid were measured as described by Ambudkar & Maloney (J. Biol. Chem., 1986, 261:10079-10086).
as §1, with “The excitation wavelength was set at 490±1.5 nm using a 150-W mercury-xenon arc lamp and monochromator (.function.3.4 grating monochromator, both from Applied Photophysics); the emission wavelength was >515 nm using a cut-on filter (Oriel Corp., Stratford, Conn.).” left out, “259:F366-F371). […]” for “259:F366-F371).”

[2] = Proton permeability (PH+) of CHIP28 proteoliposomes; type: biochemical; details: 1 μM gramicidin A added to vesicles
Procedure: as §2, with “ice. Proteoliposomes (or liposomes prepared without protein) were formed at room temperature by rapidly injecting the mixture into 25 ml of buffer A [50 mM MOPS, pH 7.5, 150 mM N-methyl-D-glucamine (NMDG) chloride also containing 10-15 mM carboxyfluorescein, 1 mM dithiothreitol, and 0.5 mM PMSF].” for “ice.”
Exclusion of protons. […] Proton permeability was measured in CHIP28-containing liposomes containing 150 mM KCl and 5 mM MOPS, incorporating 1 μM valinomycin to prevent accumulation of protons from generating a positive intravesicular voltage. […] Over the pH range employed, fluorescence was linearly related to pH; extravesicular fluorescence was quenched with anti-fluorescein antibody. To ensure that increases in PH+ caused by CHIP28 could have been detected, 1 μM gramicidin A was added and increased PH+ by over 50-fold in each experiment.

Xenopus oocytes = test: Two electrode voltage clamp of AQP5-expressing oocytes; type: cell-based; details: electrophysiological studies, not shown
Procedure: Functional expression in Oocytes--A 1-kb BamHI fragment containing the 5' untranslated sequence and the entire open reading frame of the salivary cDNA was blunt-end-ligated into the BglII site of the Xenopus expression construct pXβG, which contains the HindIII-Pst insert of pSP64T in pBS II KS (Preston et al., 1992, Science, 256:385-387). Capped cRNA was synthesized in vitro after digestion with Xbal (Preston et al., 1993). Defolliculated stage V-VI Xenopus oocytes were injected with 50 nl of water or up to 5 ng of sample cRNAs and incubated for 3 days at 18° C. in 200 mosM modified Barth's buffer. The oocytes were transferred to 70 mosM modified Barth's buffer at 21° C.; oocyte swelling was monitored by videomicroscopy, and the coefficient of osmotic water permeability (Pf) was determined (Preston et al., 1992, 1993). Uptake of [^14 C]urea or [^14 C]glycerol was measured by incubating oocytes in 200 mosM Barth's buffer for 10-20 min at 21° C. followed by washing and SDS solubilization. No increase in ion conductance was found when control oocytes were compared to RNA-injected oocytes by two electrode voltage clamps (Preston et al, 1992).

O=C(CCc1ccc(O)cc1)c1c(O)cc(O)cc1O [Phloretin]
urea flux in human RBC (human RBC): inhibits urea flux
water flux in human RBC (human RBC): without altering water flux

O=S(=O)([O-])c1cc[c]([Hg][Cl])cc1 [pCMBS, p-chloromercuribenzene sulfonate]
inhibition of Pf at 5 and 10 minutes (CHIP28; 37° C.): partial
time to complete inhibition of Pf (CHIP28; 37° C.): 20 to 30 min
Pf in CHIP28 proteoliposomes after mercurial (CHIP28; 37° C. (FIG. 12: pCMBS 25 minutes, HgCl2 3 minutes)): 0.009±0.005 cm/s
effect on the Pf of control liposomes [1]: Neither pCMBS nor HgCl2 had any effect

gramicidin A
increase of PH+ [2]: over 50 fold

B1: AQP5: 265-residue rat salivary water channel protein, 5th mammalian Aquaporin (protein, UniProt P47864 1-265, looked up)
Aquaporin-5: MKKEVCSLAFFKAVFAEFLATLIFVFFGLGSALKWPSALPTILQISIAFGLAIGTLAQALGPVSGGHINPAITLALLIGNQISLLRAVFYVAAQLVGAIAGAGILYWLAPLNARGNLAVNALNNNTTPGKAMVVELILTFQLALCIFSSTDSRRTSPVGSPALSIGLSVTLGHLVGIYFTGCSMNPARSFGPAVVMNRFSPSHWVFWVGPIVGAMLAAILYFYLLFPSSLSLHDRVAVVKGTYEPEEDWEDHREERKKTIELTAH
membrane conductance (Xenopus oocytes): failed to reveal increased membrane conductance
